Data published in the supplement of paper PMC10307832.

Experiments:
Experiment in all cases: relative viability (nuclei count vs DMSO), 5 days (fraction); higher = more cells survive
NPK76-II-72-1 + OSI-027 = compound: CC1CC(=O)N(C2=CN=C(N=C2N1C3CCCC3)NC4=C(C=C(C=C4)C(=O)NC5CCN(CC5)C)OC)C [NPK76-II-72-1] + COc1cccc2cc(-c3nc([C@H]4CC[C@H](C(=O)O)CC4)n4ncnc(N)c34)[nH]c12 [OSI-027] (partner 0.5 µM)
How it was run: (§1)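 Values are medians from duplicate plates. Each reflects relative viability, defined as the nuclei count of treated wells over that of vehicle wells. Lung cancer cell lines in 1536-well plates were pin-tool dosed one day after seeding with one drug alone or with a fixed anchor-drug dose plus five library-drug doses (not always all listed) in √10 steps, then fixed, stained and imaged at 4× after 5 days.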

[1] = compound: CC1CC(=O)N(C2=CN=C(N=C2N1C3CCCC3)NC4=C(C=C(C=C4)C(=O)NC5CCN(CC5)C)OC)C [NPK76-II-72-1] + C[C@]1(O)C[C@@H](c2nc(-c3ccc4ccc(-c5ccccc5)nc4c3)c3c(N)nccn32)C1 [Linsitinib] (partner 1 µM)
How it was run: as §1

[2] = compound: CC1CC(=O)N(C2=CN=C(N=C2N1C3CCCC3)NC4=C(C=C(C=C4)C(=O)NC5CCN(CC5)C)OC)C [NPK76-II-72-1] + N=C(N)NC(=N)NCCc1ccccc1 [Phenformin] (partner 250 µM)
How it was run: as §1

BI-2536 + Luminespib = compound: CC[C@@H]1C(=O)N(C)c2cnc(Nc3ccc(C(=O)NC4CCN(C)CC4)cc3OC)nc2N1C1CCCC1 [BI-2536] + CCNC(=O)c1noc(-c2cc(C(C)C)c(O)cc2O)c1-c1ccc(CN2CCOCC2)cc1 [Luminespib] (partner 0.01 µM)
How it was run: as §1

Row | Cell Line | relative viability (NPK76-II-72-1 + OSI-027; first compound 0.01 µM) | relative viability (NPK76-II-72-1 + OSI-027; first compound 0.03162 µM) | relative viability (NPK76-II-72-1 + OSI-027; first compound 0.1 µM) | relative viability (NPK76-II-72-1 + OSI-027; first compound 0.3162 µM) | relative viability (NPK76-II-72-1 + OSI-027; first compound 1 µM) | relative viability ([1]; first compound 0.01 µM) | relative viability ([1]; first compound 0.03162 µM) | relative viability ([1]; first compound 0.1 µM) | relative viability ([1]; first compound 0.3162 µM) | relative viability ([1]; first compound 1 µM) | relative viability ([2]; first compound 0.01 µM) | relative viability ([2]; first compound 0.03162 µM) | relative viability ([2]; first compound 0.1 µM) | relative viability ([2]; first compound 0.3162 µM) | relative viability ([2]; first compound 1 µM) | relative viability (BI-2536 + Luminespib; first compound 0.01 µM) | relative viability (BI-2536 + Luminespib; first compound 0.03162 µM) | relative viability (BI-2536 + Luminespib; first compound 0.1 µM) | relative viability (BI-2536 + Luminespib; first compound 0.3162 µM) | relative viability (BI-2536 + Luminespib; first compound 1 µM)
1 | HCC-44 | 0.617 | 0.702 | 0.337 | 0.599 | 0.65 | 0.634 | 0.701 | 0.635 | 0.681 | 0.716 | 0.201 | 0.176 | 0.22 | 0.212 | 0.271 | 1.03 | 0.261 | 0.204 | 0.104 | 0.12
2 | HCC-827 | 0.75 | 0.788 | 0.835 | 0.597 | 0.801 | 0.891 | 0.91 | 0.939 | 0.855 | 1.01 | 0.407 | 0.448 | 0.407 | 0.409 | 0.404 | 0.801 | 0.35 | 0.401 | 0.203 | 0.138
3 | NCI-H1623 | 0.422 | 0.405 | 0.432 | 0.362 | 0.461 | – | – | – | – | – | 0.562 | 0.563 | 0.622 | 0.324 | 0.622 | 0.402 | 0.508 | 0.374 | 0.405 | 0.388
4 | NCI-H2347 | 0.407 | 0.502 | 0.466 | 0.366 | 0.274 | 0.925 | 1.03 | 1 | 0.896 | 0.983 | 0.413 | 0.432 | 0.514 | 0.521 | 0.395 | – | 0.517 | 0.41 | 0.378 | 0.272
5 | PC-14 | 0.778 | 0.935 | 0.981 | 0.667 | 1.08 | 0.927 | 1.1 | 0.938 | 0.874 | 1.06 | 0.562 | 0.462 | 0.585 | 0.585 | 0.628 | 0.116 | 0.171 | 0.111 | 0.107 | 0.108
6 | NCI-H1651 | 0.676 | 0.743 | 0.677 | 0.652 | 0.799 | 0.947 | 0.972 | 1.09 | 0.867 | 1.05 | 0.377 | 0.314 | 0.314 | 0.307 | 0.318 | 0.689 | 1.04 | 0.333 | 0.146 | 0.139
7 | HARA | 0.393 | 0.424 | 0.545 | 0.345 | 0.67 | 1.03 | 0.921 | 0.929 | 0.77 | 1.03 | 0.419 | 0.408 | 0.486 | 0.434 | 0.509 | 0.784 | 1.46 | 0.148 | 0.0637 | 0.0578
8 | NCI-H1650 | 0.609 | 0.716 | 0.576 | 0.414 | 0.738 | – | – | – | – | – | 0.361 | 0.374 | 0.468 | 0.349 | 0.396 | 0.188 | 0.166 | 0.21 | 0.183 | 0.198
9 | HCC-78 | 0.511 | 0.467 | 0.356 | 0.496 | 0.404 | – | 0.529 | 0.487 | – | 0.516 | 0.695 | 0.684 | 0.684 | 0.692 | 0.665 | – | – | – | – | –
10 | SW 900 | 0.542 | 0.475 | 0.513 | 0.601 | 0.713 | – | – | – | – | – | 0.559 | 0.73 | 0.657 | 0.664 | 0.699 | 0.189 | 0.186 | 0.173 | 0.198 | 0.201
11 | NCI-H1648 | 0.239 | 0.244 | – | – | 0.26 | – | – | – | – | – | – | – | – | – | – | – | – | – | – | –
12 | A549 | – | – | – | – | – | 0.516 | 0.651 | 0.538 | 0.417 | 0.54 | – | 0.136 | 0.222 | 0.155 | 0.192 | – | – | – | – | –
13 | NCI-H1703 | – | – | – | – | – | 0.428 | 0.65 | 0.621 | 0.645 | 0.996 | – | – | – | – | – | – | – | – | – | –
14 | ChaGo-K-1 | 0.561 | 0.622 | 0.582 | 0.63 | 0.653 | – | – | – | – | – | 0.472 | 0.575 | 0.544 | 0.476 | 0.478 | 0.691 | 0.615 | 0.529 | 0.16 | 0.178
15 | Calu-6 | – | – | – | – | – | 0.981 | 0.912 | 0.897 | 0.948 | 0.946 | – | – | – | – | – | – | – | – | – | –
16 | HCC-366 | 0.939 | 0.998 | 1.08 | 0.863 | 0.888 | 0.54 | 0.688 | 0.704 | 0.707 | 0.777 | 0.593 | 0.669 | 0.65 | 0.559 | 0.607 | – | – | – | – | –
17 | NCI-H2342 | 0.632 | 0.572 | 0.632 | 0.435 | 0.58 | – | – | – | – | – | 0.606 | 0.472 | 0.675 | 0.394 | 0.623 | 0.883 | 0.661 | 0.676 | 0.38 | 0.369
18 | EBC-1 | – | – | – | – | – | 0.853 | 0.858 | 0.886 | 0.922 | 1.13 | – | – | – | – | – | – | – | – | – | –
19 | NCI-H1299 | – | – | – | – | – | 0.999 | 0.96 | 1.01 | 0.98 | 1.03 | – | – | – | – | – | – | – | – | – | –
20 | NCI-H522 | 0.72 | 0.969 | 0.681 | 0.623 | 0.846 | – | – | – | – | – | 0.557 | 0.732 | 0.639 | 0.563 | 0.699 | 1.21 | 1.08 | 1.04 | 0.375 | 0.318
21 | IA-LM | – | – | – | – | – | 0.582 | 0.684 | 0.435 | 0.597 | 0.809 | – | – | – | – | – | – | – | – | – | –
22 | NCI-H2170 | 0.73 | 0.759 | 0.716 | 0.493 | 0.798 | – | – | – | – | – | 0.412 | 0.432 | 0.402 | 0.404 | 0.461 | 0.624 | 0.802 | 0.661 | 0.205 | 0.219
